The test system of assay [1] is Calf thymus DNA. Kind of assay: Binding affinity to double strand calf thymus DNA assessed as melting temperature. Particulars: Bos taurus. It counts as nucleic-acid assay.
Assay [2] has as its system Calf thymus DNA. Description: Binding affinity to calf thymus DNA assessed as exothermic enthalpy at 20 degC by isothermal titration […]. Type of assay: nucleic-acid assay. Particulars: Bos taurus.
The test system of another assay is MOLT-4. Kind of assay: […] in human MOLT4 cells after 24 to 72 hrs by MTT assay. Type of assay: functional, cell-based.

In the case of `CCCCCCCCCCCCCCCC(=O)OCC(CO[C@H]1O[C@H](CS(=O)(=O)O)[C@@H](O)[C@H](O)[C@H]1O)OC(=O)CCCCCCCCCCCCCCC` (stereo partly drawn), the Tm in the assay with Calf thymus DNA [1] stood at 62 °C. Further, the Ka in the assay with Calf thymus DNA [2] was 5.64 ×10⁴ /M. Half-maximal inhibition in the assay on MOLT-4 (IC50) required 8.3 µM.

Source of the values: ChEMBL document CHEMBL1268963, “Identification of a sulfonoquinovosyldiacylglyceride from Azadirachta indica and studies on its cytotoxic activity and DNA binding properties” (Bioorg Med Chem Lett, 2010).
